Source: article PMC8500670, “A selective WDR5 degrader inhibits acute myeloid leukemia in patient-derived mouse models” (Science translational medicine, 2021)
Like-named read-outs stand apart in the source and are kept apart here.

What was measured:
Assay in all cases: biochemical
Set-up in all cases: protein methyltransferase selectivity panel, enzyme activity relative to DMSO controls, single concentration in duplicate
SET8 = molecular target: T1, SET8 (Homo sapiens, UniProt Q9NQR1); conditions: Substrate:=Nucleosomes
T1 construct: gene KMT5A
T1 sequence (Q9NQR1 1-393): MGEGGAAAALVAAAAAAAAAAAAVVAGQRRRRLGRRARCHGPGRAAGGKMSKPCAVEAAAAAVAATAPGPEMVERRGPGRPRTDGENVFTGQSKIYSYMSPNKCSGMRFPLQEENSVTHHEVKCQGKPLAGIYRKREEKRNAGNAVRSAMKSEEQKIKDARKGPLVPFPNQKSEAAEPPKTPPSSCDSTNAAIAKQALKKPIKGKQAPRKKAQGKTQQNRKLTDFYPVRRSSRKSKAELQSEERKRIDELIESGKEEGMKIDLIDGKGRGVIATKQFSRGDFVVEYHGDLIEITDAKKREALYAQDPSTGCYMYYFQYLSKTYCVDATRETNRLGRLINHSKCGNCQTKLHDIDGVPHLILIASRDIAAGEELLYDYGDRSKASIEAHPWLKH
Protocol: (§1) We next assessed selectivity of MS67 against 22 protein methyltransferases (table S2) and a broad panel of common drug targets including 45 kinases (table S3) and 44 G protein–coupled receptors (GPCR), ion channels, and transporters (table S4). […] We subsequently determined that MS67 had moderate binding affinity (Ki = 1.0 ± 0.8 μM) to Sigma 2 receptor (fig. S10).

GLP = molecular target: T2, GLP (Homo sapiens, UniProt Q9H9B1); conditions: Substrate:=Histone H3 1-21
T2 construct: gene EHMT1
T2 sequence (Q9H9B1 1-1298): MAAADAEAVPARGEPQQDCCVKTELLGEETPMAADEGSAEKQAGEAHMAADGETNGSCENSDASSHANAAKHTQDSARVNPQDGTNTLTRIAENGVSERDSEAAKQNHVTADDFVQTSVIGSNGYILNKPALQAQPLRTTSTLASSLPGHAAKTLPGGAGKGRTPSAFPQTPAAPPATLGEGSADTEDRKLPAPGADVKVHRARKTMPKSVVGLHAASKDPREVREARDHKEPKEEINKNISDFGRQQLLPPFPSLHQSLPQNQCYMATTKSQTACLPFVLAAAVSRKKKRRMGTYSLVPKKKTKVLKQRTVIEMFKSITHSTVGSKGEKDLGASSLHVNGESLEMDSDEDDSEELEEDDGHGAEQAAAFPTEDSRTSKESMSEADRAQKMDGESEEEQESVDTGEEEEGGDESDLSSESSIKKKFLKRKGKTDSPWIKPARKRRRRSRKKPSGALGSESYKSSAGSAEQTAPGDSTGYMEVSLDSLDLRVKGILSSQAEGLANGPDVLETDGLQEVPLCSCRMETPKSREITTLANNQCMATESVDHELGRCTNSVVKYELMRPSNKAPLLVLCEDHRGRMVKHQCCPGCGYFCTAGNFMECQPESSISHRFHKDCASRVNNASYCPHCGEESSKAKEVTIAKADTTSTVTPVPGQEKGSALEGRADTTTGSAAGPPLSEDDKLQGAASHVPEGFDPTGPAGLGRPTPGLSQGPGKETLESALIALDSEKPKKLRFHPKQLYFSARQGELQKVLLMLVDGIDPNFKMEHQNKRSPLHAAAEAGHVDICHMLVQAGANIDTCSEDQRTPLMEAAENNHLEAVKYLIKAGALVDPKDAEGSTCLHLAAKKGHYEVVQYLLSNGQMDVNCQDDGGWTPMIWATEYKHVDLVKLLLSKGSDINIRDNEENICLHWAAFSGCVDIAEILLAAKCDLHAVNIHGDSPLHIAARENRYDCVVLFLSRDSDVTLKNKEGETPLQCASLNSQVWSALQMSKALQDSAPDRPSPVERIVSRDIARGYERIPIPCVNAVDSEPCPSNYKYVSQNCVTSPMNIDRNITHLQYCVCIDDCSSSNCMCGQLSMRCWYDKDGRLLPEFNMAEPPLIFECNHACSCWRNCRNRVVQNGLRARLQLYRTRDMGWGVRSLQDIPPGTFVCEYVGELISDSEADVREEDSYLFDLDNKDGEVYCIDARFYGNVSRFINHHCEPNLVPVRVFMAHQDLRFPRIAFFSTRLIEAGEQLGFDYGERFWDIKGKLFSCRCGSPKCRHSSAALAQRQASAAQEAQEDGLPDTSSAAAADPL
Protocol: as §1

DOT1L = DOT1L (Homo sapiens, UniProt Q8TEK3); conditions: Substrate:=Nucleosomes
Chain of DOT1L (Q8TEK3 whole entry): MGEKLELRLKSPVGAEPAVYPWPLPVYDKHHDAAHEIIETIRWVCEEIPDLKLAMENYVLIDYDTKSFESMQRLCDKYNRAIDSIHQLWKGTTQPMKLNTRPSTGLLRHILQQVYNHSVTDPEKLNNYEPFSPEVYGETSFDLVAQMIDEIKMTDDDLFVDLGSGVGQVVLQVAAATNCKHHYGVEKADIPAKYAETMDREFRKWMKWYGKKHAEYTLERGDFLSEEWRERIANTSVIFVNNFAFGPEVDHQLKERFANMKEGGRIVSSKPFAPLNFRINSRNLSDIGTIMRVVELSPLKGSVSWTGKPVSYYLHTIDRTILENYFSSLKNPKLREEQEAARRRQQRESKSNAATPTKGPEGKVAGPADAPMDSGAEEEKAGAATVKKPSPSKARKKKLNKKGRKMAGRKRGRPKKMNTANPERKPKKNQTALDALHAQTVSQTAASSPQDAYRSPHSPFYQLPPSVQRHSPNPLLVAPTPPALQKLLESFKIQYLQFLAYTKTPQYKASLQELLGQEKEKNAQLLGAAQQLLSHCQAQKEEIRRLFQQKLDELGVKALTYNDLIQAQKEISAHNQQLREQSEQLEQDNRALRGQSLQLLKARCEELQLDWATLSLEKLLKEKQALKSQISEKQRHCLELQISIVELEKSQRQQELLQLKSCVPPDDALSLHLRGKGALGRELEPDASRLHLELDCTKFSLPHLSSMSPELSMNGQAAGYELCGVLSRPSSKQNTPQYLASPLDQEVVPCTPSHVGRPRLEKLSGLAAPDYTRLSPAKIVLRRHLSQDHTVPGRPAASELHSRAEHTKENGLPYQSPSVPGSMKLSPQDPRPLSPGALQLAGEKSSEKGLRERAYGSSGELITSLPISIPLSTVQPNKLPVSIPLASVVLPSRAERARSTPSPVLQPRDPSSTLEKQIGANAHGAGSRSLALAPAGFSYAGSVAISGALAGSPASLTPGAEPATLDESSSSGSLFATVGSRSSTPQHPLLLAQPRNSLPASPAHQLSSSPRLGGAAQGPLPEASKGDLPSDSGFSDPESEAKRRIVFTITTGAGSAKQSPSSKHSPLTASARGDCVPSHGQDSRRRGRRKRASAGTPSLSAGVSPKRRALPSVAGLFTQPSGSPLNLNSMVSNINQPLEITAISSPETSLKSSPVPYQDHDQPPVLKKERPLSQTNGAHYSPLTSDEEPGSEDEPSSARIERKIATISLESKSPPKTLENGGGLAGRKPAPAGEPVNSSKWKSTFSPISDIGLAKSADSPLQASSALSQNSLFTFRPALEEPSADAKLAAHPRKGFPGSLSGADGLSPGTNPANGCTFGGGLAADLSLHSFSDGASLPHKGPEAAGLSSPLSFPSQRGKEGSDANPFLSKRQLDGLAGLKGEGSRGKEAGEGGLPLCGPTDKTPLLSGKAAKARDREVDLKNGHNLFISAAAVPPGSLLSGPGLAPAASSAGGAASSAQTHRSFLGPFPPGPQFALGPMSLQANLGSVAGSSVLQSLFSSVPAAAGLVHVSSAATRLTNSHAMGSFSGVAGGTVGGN
Protocol: as §1

SUV39H2 = SUV39H2 (Homo sapiens, UniProt Q9H5I1); conditions: Substrate:=Histone H3; read-out: Enzyme % Activity (relative to DMSO controls) / MS67 / 10 / Data 1:
Protocol: as §1

PRMT8 = PRMT8 (Homo sapiens, UniProt Q9NR22); conditions: Substrate:=Histone H4
Chain of PRMT8 (Q9NR22 whole entry): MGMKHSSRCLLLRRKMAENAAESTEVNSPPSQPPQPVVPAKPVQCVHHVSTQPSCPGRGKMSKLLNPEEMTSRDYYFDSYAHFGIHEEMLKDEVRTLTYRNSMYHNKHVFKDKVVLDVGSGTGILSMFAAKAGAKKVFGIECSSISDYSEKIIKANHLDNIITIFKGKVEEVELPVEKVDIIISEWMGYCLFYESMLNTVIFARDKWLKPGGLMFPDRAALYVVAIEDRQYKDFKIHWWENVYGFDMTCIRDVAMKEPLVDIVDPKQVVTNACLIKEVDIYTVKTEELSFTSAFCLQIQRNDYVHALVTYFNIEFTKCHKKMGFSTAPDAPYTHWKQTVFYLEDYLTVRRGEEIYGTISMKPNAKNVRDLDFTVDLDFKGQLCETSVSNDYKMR
Protocol: as §1

[1] = read-out: Enzyme % Activity (relative to DMSO controls) / MS67 / 10 / Data 1:
[2] = read-out: Enzyme % Activity (relative to DMSO controls) / MS67 / 10 / Data 2:

Chain of SUV39H2 (Q9H5I1 whole entry): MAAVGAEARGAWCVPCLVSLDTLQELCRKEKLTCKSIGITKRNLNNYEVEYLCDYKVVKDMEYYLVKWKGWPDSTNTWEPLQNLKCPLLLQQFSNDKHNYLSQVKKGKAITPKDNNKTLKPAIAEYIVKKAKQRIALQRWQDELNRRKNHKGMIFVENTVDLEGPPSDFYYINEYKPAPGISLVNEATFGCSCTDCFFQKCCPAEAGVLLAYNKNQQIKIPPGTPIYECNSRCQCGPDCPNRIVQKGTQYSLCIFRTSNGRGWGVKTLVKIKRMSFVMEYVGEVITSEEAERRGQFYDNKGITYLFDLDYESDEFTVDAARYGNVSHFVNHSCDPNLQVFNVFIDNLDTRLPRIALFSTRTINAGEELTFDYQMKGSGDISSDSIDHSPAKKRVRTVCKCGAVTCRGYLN

Cc1ncsc1-c1ccc([C@H](C)NC(=O)[C@@H]2C[C@@H](O)CN2C(=O)[C@@H](NC(=O)CNC(=O)c2ccc(F)c(-c3ccc(N4C[C@@H](C)N(C)[C@@H](C)C4)c(NC(=O)c4c[nH]c(=O)cc4C(F)(F)F)c3)c2)C(C)(C)C)cc1 [MS67]
remaining activity at 10 µM (SET8; [1]): 112% | remaining activity at 10 µM (SET8; [2]): 113% | remaining activity at 10 µM (GLP; [1]): 93.6% | remaining activity at 10 µM (GLP; [2]): 92.2% | remaining activity at 10 µM (DOT1L; [1]): 95.8% | remaining activity at 10 µM (DOT1L; [2]): 92.3% | remaining activity at 10 µM (SUV39H2): 102% | remaining activity at 10 µM (PRMT8; [1]): 102% | remaining activity at 10 µM (PRMT8; [2]): 98.1%
